Test results as given in article PMC10477861, “Efficient Mining of Anticancer Peptides from Gut Metagenome” (Advanced Science, 2023).

Columns and labels:
Conditions in all cases: 25 µM pACP, 24 h, maintenance medium 1% FBS, ratio of viability to vehicle (PBS), at least three technical repetitions
MCF7 = experiment: MTT primary screening of anticancer activity, MCF7; type: cell-based
Method in brief: (§1)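 Cultures grown to 60% confluence; complete medium replaced by 1% FBS maintenance medium; peptide added at 25 µM final; incubated 24 h; viability assessed by MTT.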

MDA-MB-436 = experiment: MTT primary screening of anticancer activity, MDA-MB-436; type: cell-based
Method in brief: as §1

HT29 = experiment: MTT primary screening of anticancer activity, HT29; type: cell-based, Human
Method in brief: as §1

LCC = experiment: MTT primary screening of anticancer activity, LCC; type: cell-based
Method in brief: as §1

MDA-MB-453 = experiment: MTT primary screening of anticancer activity, MDA-MB-453; type: cell-based
Method in brief: as §1

EFM192A = experiment: MTT primary screening of anticancer activity, EFM192A; type: cell-based
Method in brief: as §1

BT474 = experiment: MTT primary screening of anticancer activity, BT474; type: cell-based
Method in brief: as §1

MDA-MB-231 = experiment: MTT primary screening of anticancer activity, MDA-MB-231; type: cell-based
Method in brief: as §1

Hela = experiment: MTT primary screening of anticancer activity, Hela; type: cell-based, Human
Method in brief: as §1

Caco2 = experiment: MTT primary screening of anticancer activity, Caco2; type: cell-based, Human
Method in brief: as §1

MDA-MB-468 = experiment: MTT primary screening of anticancer activity, MDA-MB-468; type: cell-based
Method in brief: as §1

HCT116 = experiment: MTT primary screening of anticancer activity, HCT116; type: cell-based, Human
Method in brief: as §1

T47D = experiment: MTT primary screening of anticancer activity, T47D; type: cell-based
Method in brief: as §1

B16 = experiment: MTT primary screening of anticancer activity, B16; type: cell-based, Mouse
Method in brief: as §1

CT26 = experiment: MTT primary screening of anticancer activity, CT26; type: cell-based, Murine
Method in brief: as §1

SK-BR-3 = experiment: MTT primary screening of anticancer activity, SK-BR-3; type: cell-based
Method in brief: as §1

DSYGNRTEIERKIWRRYPCGYSCGTGEVKCDKEEWKKEYW [pACP264]
Survival rate of cancer cells in primary screening (MCF7): 0.72
Survival rate of cancer cells in primary screening (MDA-MB-436): 1.00
Survival rate of cancer cells in primary screening (HT29): 1.00
Survival rate of cancer cells in primary screening (LCC): 1.00
Survival rate of cancer cells in primary screening (MDA-MB-453): 1.00
Survival rate of cancer cells in primary screening (EFM192A): 1.00
Survival rate of cancer cells in primary screening (BT474): 1.00
Survival rate of cancer cells in primary screening (MDA-MB-231): 1.00
Survival rate of cancer cells in primary screening (Hela): 1.00
Survival rate of cancer cells in primary screening (Caco2): 1.00
Survival rate of cancer cells in primary screening (MDA-MB-468): 1.00
Survival rate of cancer cells in primary screening (HCT116): 1.00
Survival rate of cancer cells in primary screening (T47D): 0.70
Survival rate of cancer cells in primary screening (B16): 0.73
Survival rate of cancer cells in primary screening (CT26): 1.00
Survival rate of cancer cells in primary screening (SK-BR-3): 1.00

SPLKGGGLLPPAGFCPRRVLCRLPTGWKKGKPSGQMPLFRIWRKVMVMK [pACP1985]
Survival rate of cancer cells in primary screening (MCF7): 0.19
Survival rate of cancer cells in primary screening (MDA-MB-436): 0.0378
Survival rate of cancer cells in primary screening (HT29): 1.00
Survival rate of cancer cells in primary screening (LCC): 1.00
Survival rate of cancer cells in primary screening (MDA-MB-453): 0.08
Survival rate of cancer cells in primary screening (EFM192A): 0.07
Survival rate of cancer cells in primary screening (BT474): 0.05
Survival rate of cancer cells in primary screening (MDA-MB-231): 0.10
Survival rate of cancer cells in primary screening (Hela): 0.0132
Survival rate of cancer cells in primary screening (Caco2): 1.00
Survival rate of cancer cells in primary screening (MDA-MB-468): 0.31
Survival rate of cancer cells in primary screening (HCT116): 1.00
Survival rate of cancer cells in primary screening (T47D): 0.15
Survival rate of cancer cells in primary screening (B16): 0.79
Survival rate of cancer cells in primary screening (CT26): 0.77
Survival rate of cancer cells in primary screening (SK-BR-3): 0.24

GVPMGSVIKKRRKRMAKKKHRKLLRKTRHQRRNKK [pACP593]
Survival rate of cancer cells in primary screening (MCF7): 1.00
Survival rate of cancer cells in primary screening (MDA-MB-436): 1.00
Survival rate of cancer cells in primary screening (HT29): 1.00
Survival rate of cancer cells in primary screening (LCC): 1.00
Survival rate of cancer cells in primary screening (MDA-MB-453): 0.63
Survival rate of cancer cells in primary screening (EFM192A): 1.00
Survival rate of cancer cells in primary screening (BT474): 0.78
Survival rate of cancer cells in primary screening (MDA-MB-231): 1.00
Survival rate of cancer cells in primary screening (Hela): 0.74
Survival rate of cancer cells in primary screening (Caco2): 1.00
Survival rate of cancer cells in primary screening (MDA-MB-468): 1.00
Survival rate of cancer cells in primary screening (HCT116): 1.00
Survival rate of cancer cells in primary screening (T47D): 0.71
Survival rate of cancer cells in primary screening (B16): 1.00
Survival rate of cancer cells in primary screening (CT26): 1.00
Survival rate of cancer cells in primary screening (SK-BR-3): 1.00

RLRPVILCKKRRLAAGRKKVGRQKKRKASAEGKEGRSPKKKKDGCW [pACP1739]
Survival rate of cancer cells in primary screening (MCF7): 0.28
Survival rate of cancer cells in primary screening (MDA-MB-436): 0.51
Survival rate of cancer cells in primary screening (HT29): 1.00
Survival rate of cancer cells in primary screening (LCC): 1.00
Survival rate of cancer cells in primary screening (MDA-MB-453): 0.18
Survival rate of cancer cells in primary screening (EFM192A): 1.00
Survival rate of cancer cells in primary screening (BT474): 0.21
Survival rate of cancer cells in primary screening (MDA-MB-231): 1.00
Survival rate of cancer cells in primary screening (Hela): 0.16
Survival rate of cancer cells in primary screening (Caco2): 1.00
Survival rate of cancer cells in primary screening (MDA-MB-468): 0.39
Survival rate of cancer cells in primary screening (HCT116): 1.00
Survival rate of cancer cells in primary screening (T47D): 0.40
Survival rate of cancer cells in primary screening (B16): 1.00
Survival rate of cancer cells in primary screening (CT26): 1.00
Survival rate of cancer cells in primary screening (SK-BR-3): 0.53

NSFCRQTALCSVALGQYRTKIVRQMRRQIFRQMKQKAE [pACP1403]
Survival rate of cancer cells in primary screening (MCF7): 1.00
Survival rate of cancer cells in primary screening (MDA-MB-436): 1.00
Survival rate of cancer cells in primary screening (HT29): 1.00
Survival rate of cancer cells in primary screening (LCC): 1.00
Survival rate of cancer cells in primary screening (MDA-MB-453): 1.00
Survival rate of cancer cells in primary screening (EFM192A): 1.00
Survival rate of cancer cells in primary screening (BT474): 1.00
Survival rate of cancer cells in primary screening (MDA-MB-231): 1.00
Survival rate of cancer cells in primary screening (Hela): 1.00
Survival rate of cancer cells in primary screening (Caco2): 1.00
Survival rate of cancer cells in primary screening (MDA-MB-468): 0.73
Survival rate of cancer cells in primary screening (HCT116): 1.00
Survival rate of cancer cells in primary screening (T47D): 0.71
Survival rate of cancer cells in primary screening (B16): 1.00
Survival rate of cancer cells in primary screening (CT26): 1.00
Survival rate of cancer cells in primary screening (SK-BR-3): 1.00

KSLQMVLSFVIIFADKKKTLATLIVAKKKKGW [pACP1096]
Survival rate of cancer cells in primary screening (MCF7): 1.00
Survival rate of cancer cells in primary screening (MDA-MB-436): 0.69
Survival rate of cancer cells in primary screening (HT29): 0.71
Survival rate of cancer cells in primary screening (LCC): 1.00
Survival rate of cancer cells in primary screening (MDA-MB-453): 1.00
Survival rate of cancer cells in primary screening (EFM192A): 1.00
Survival rate of cancer cells in primary screening (BT474): 1.00
Survival rate of cancer cells in primary screening (MDA-MB-231): 1.00
Survival rate of cancer cells in primary screening (Hela): 1.00
Survival rate of cancer cells in primary screening (Caco2): 1.00
Survival rate of cancer cells in primary screening (MDA-MB-468): 1.00
Survival rate of cancer cells in primary screening (HCT116): 1.00
Survival rate of cancer cells in primary screening (T47D): 1.00
Survival rate of cancer cells in primary screening (B16): 1.00
Survival rate of cancer cells in primary screening (CT26): 1.00
Survival rate of cancer cells in primary screening (SK-BR-3): 1.00

IPNKKAGSRCLSKKCLLPAKRAFEIHFLTQLTGDIKGI [pACP766]
Survival rate of cancer cells in primary screening (MCF7): 0.59
Survival rate of cancer cells in primary screening (MDA-MB-436): 0.52
Survival rate of cancer cells in primary screening (HT29): 0.47
Survival rate of cancer cells in primary screening (LCC): 1.00
Survival rate of cancer cells in primary screening (MDA-MB-453): 1.00
Survival rate of cancer cells in primary screening (EFM192A): 1.00
Survival rate of cancer cells in primary screening (BT474): 0.71
Survival rate of cancer cells in primary screening (MDA-MB-231): 1.00
Survival rate of cancer cells in primary screening (Hela): 0.68
Survival rate of cancer cells in primary screening (Caco2): 0.68
Survival rate of cancer cells in primary screening (MDA-MB-468): 1.00
Survival rate of cancer cells in primary screening (HCT116): 1.00
Survival rate of cancer cells in primary screening (T47D): 0.61
Survival rate of cancer cells in primary screening (B16): 1.00
Survival rate of cancer cells in primary screening (CT26): 1.00
Survival rate of cancer cells in primary screening (SK-BR-3): 1.00
